Structures are written as SMILES.

In the assay the target is human PDE10A2 (Homo sapiens (Human), UniProt Q9Y233). The assay is described as follows: PDE10 fluorescence polarization (IMAP FP) inhibition assay. In kind it is biochemical. As to conditions: read-out: PDE10A Ki. As to the method:
The activity of the compounds in accordance with the present invention as PDE10 inhibitors may be readily determined without undue experimentation using a fluorescence polarization (FP) methodology that is well known in the art (Huang, W., et al., J. Biomol Screen, 2002, 7: 215).
In a typical experiment the PDE10 inhibitory activity of the compounds of the present invention was determined in accordance with the following experimental method. PDE10A2 was amplified from human fetal brain cDNA (Clontech, Mountain View, Calif.) using a forward primer corresponding to nucleotides 56-77 of human PDE10A2 (Accession No. AF127480, Genbank Identifier 4894716), containing a Kozak consensus sequence, and a reverse primer corresponding to nucleotides 2406-2413 of human PDE10A2 (Accession No. AF127480, Genbank Identifier 4894716). Amplification with Easy-A polymerase (Stratagene, La Jolla, Calif.) was 95° C. for 2 minutes followed by thirty three cycles of 95° C. for 40 seconds, 55° C. for 30 seconds, and 72° C. for 2 minutes 48 seconds. Final extension was 72° C. for 7 minutes. The PCR product was TA cloned into pcDNA3.2-TOPO (Invitrogen, Carlsbad, Calif.) according to standard protocol. AD293 cells with 70-80% confluency were transiently transfected with human PDE10A2/pcDNA3.2-TOPO using Lipofectamine 2000 according to manufacturer specifications (Invitrogen, Carlsbad, Calif.). Cells were harvested 48 hours post-transfection and lysed by sonication (setting 3, 10×5 sec pulses) in a buffer containing 20 mM HEPES, 1 mM EDTA and protease inhibitor cocktail (Roche). Lysate was collected by centrifugation at 75,000×g for 20 minutes. Supernatant containing the cytoplasmic fraction was used for evaluation of PDE10A2 activity. The fluorescence polarization assay for cyclic nucleotide phosphodiesterases was performed using an IMAP® FP kit supplied by Molecular Devices, Sunnyvale, Calif. (product # R8139). IMAP® technology has been applied previously to phosphodiesterase assays (Huang, W., et al., J. Biomol Screen, 2002, 7: 215). Assays were performed at room temperature in 384-well microtiter plates with an incubation volume of 20.2 μL. Solutions of test compounds were prepared in DMSO and serially diluted with DMSO to yield 8 μL of each of 10 solutions differing by 3-fold in concentration, at 32 serial dilutions per plate. 100% inhibition is determined using a known PDE10 inhibitor, which can be any compound that is present at 5,000 times its Ki value in the assay described as follows, such as papaverine (see Siuciak, et al. Neuropharmacology (2006) 51:386-396; Becker, et al. Behav Brain Res (2008) 186(2):155-60; Threlfell, et al., J Pharmacol Exp Ther (2009) 328(3):785-795), 2-{4-[pyridin-4-yl-1-(2,2,2-trifluoroethyl)-1H-pyrazol-3-yl]phenoxymethyl}quinoline succinic acid or 2-[4-(1-methyl-4-pyridin-4-yl-1H-pyrazol-3-yl)-phenoxymethyl]quinoline succinic acid (see Schmidt, et al. J Pharmacol Exp Ther (2008) 325:681-690; Threlfell, et al., J Pharmacol Exp Ther (2009) 328(3): 785-795). 0% of inhibition is determined by using DMSO (1% final concentrations).
A Labcyte Echo 555 (Labcyte, Sunnyvale, Calif.) is used to dispense 200 nL from each well of the titration plate to the 384 well assay plate. A solution of enzyme (1/1600 dilution from aliquots; sufficient to produce 20% substrate conversion) and a separate solution of FAM-labeled cAMP PDE from Molecular Devices (product # R7506), at a final concentration of 50 nM are made in the assay buffer (10 mM Tris HCl, pH 7.2, 10 mM MgCl2, 0.05% NaN3 0.01% Tween-20, and 1 mM DTT). The enzyme and the substrate are then added to the assay plates in two consecutive additions of 10 μL, and then shaken to mix. The reaction is allowed to proceed at room temperature for 30 minutes. A binding solution is then made from the kit components, comprised of 80% Solution A, 20% Solution B and binding reagent at a volume of 1/600 the total binding solution.

human PDE10A2, sequence (Q9Y233 267-1055): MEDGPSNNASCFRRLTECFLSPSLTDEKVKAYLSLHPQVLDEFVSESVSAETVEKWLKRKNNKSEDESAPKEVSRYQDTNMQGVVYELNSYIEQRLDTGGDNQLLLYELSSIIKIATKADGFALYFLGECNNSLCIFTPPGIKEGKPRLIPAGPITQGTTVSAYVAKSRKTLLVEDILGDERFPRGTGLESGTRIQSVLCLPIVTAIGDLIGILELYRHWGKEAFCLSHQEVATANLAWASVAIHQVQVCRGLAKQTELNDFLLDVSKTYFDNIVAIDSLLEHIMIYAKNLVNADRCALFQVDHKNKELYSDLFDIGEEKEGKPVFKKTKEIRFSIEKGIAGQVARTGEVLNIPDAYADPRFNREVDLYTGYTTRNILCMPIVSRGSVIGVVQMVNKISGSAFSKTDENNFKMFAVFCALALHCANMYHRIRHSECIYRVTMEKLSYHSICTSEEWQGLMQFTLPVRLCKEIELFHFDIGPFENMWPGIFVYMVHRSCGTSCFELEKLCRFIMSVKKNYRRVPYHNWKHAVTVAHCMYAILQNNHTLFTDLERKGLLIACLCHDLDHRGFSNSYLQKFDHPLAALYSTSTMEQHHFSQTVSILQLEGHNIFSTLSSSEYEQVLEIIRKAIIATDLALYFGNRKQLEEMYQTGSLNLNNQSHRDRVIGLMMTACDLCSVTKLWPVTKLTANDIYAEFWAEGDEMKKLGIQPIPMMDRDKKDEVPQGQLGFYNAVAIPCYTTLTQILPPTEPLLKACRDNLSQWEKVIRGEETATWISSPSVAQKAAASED

As for `COc1cccnc1[C@H]1C[C@@H]1COc1cc(NCc2cnn(C)c2)nc(C)n1` (stereo in doubt) [Compound 2-14, 6-{[2-(3-methoxypyridin-2-yl)cyclopropyl]methoxy}-2-methyl-N-[(1-methyl-1H-pyrazol-4-yl)methyl]pyrimidin-4-amine], the Ki (as a rule, a measure of affinity in units of concentration, obtained from inhibition or displacement) was determined as 3.6 nM.
The figure for `Cc1nc(NCc2cnn(C)c2)cc(OC[C@H]2C[C@@H]2c2ccc(C(F)F)cn2)n1` (stereo in doubt) [Compound 2-17, 6-({2-[5-(difluoromethyl)pyridin-2-yl]cyclopropyl}methoxy)-2-methyl-N-[(1-methyl-1H-pyrazol-4-yl)methyl]pyrimidin-4-amine] is 3.5 nM; for `Cc1nc(NCc2nnc(C)s2)cc(OC[C@H]2C[C@@H]2c2ccc(-c3cccnc3)cn2)n1` (stereo in doubt) [Compound 8-8, 6-{[2-(3,3′-bipyridin-6-yl)cyclopropyl]methoxy}-2-methyl-N-[(5-methyl-1,3,4-thiadiazol-2-yl)methyl] pyrimidin-4-amine] it is 1 nM.
The figure for `Cc1nc(NCc2nnc(C)s2)cc(OC[C@H]2C[C@@H]2c2ccc(C3CC3)cn2)n1` (stereo in doubt) [Compound 9-2, 6-{[2-(5-cyclopropylpyridin-2-yl)cyclopropyl]methoxy}-2-methyl-N-[(5-methyl-1,3,4-thiadiazol-2-yl)methyl]pyrimidin-4-amine] is 0.08 nM.
As for `Cc1nc(NCc2cnn(C)c2)cc(OCC2CC2c2ccccn2)n1` (stereo not shown) [Compound 1-2, 2-methyl-N-[(1-methyl-1H-pyrazol-4-yl)methyl]-6-[(2-pyridin-2-ylcyclopropyl)methoxy]pyrimidin-4-amine], the figure is 0.03 nM; as for `Cc1cc(CNc2cc(OC[C@H]3C[C@@H]3c3ccc4ccccc4n3)nc(C)n2)n(C)n1` [Compound 2-4, S,S-N-[(1,3-dimethyl-1H-pyrazol-5-yl)methyl]-2-methyl-6-[(2-quinolin-2-ylcyclopropyl)methoxy] pyrimidin-4-amine], 0.6 nM; as for `Cc1nc(NCc2nnc(C)s2)cc(OC[C@H]2C[C@@H]2c2ccc3ncccc3n2)n1` [Compound 2-27, S,S-2-methyl-N-[(5-methyl-1,3,4-thiadiazol-2-yl)methyl]-6-{[2-(1,5-naphthyridin-2-yl)cyclopropyl]methoxy} pyrimidin-4-amine], 0.02 nM.
As to `Cc1nc(NCc2nnc(C3CC3)s2)cc(OC[C@H]2C[C@@H]2c2ccccn2)n1` [Compound 2-37, S,S-N-[(5-cyclopropyl-1,3,4-thiadiazol-2-yl)methyl]-2-methyl-6-[(2-pyridin-2-ylcyclopropyl)methoxy] pyrimidin-4-amine], the Ki amounted to 3.8 nM.
Turning to `Cc1nc(NCc2sc(C)nc2C)c(C)c(OC[C@H]2C[C@@H]2c2ccccn2)n1` [Compound 2-47, S,S-N-[(2,4-dimethyl-1,3-thiazol-5-yl)methyl]-2,5-dimethyl-6-[(2-pyridin-2-ylcyclopropyl)methoxy] pyrimidin-4-amine], the Ki is 41.7 nM.
As for `COc1ccc([C@H]2C[C@@H]2COc2cc(NCc3nnc(C)s3)nc(N)n2)nc1` [Compound 2-53, S,S-6-{[(1S,2S)-2-(5-methoxypyridin-2-yl)cyclopropyl]methoxy}-N-4-[(5-methyl-1,3,4-thiadiazol-2-yl)methyl]pyrimidine-2,4-diamine], the Ki was 0.05 nM.
With `Cc1ccc([C@H]2C[C@@H]2COc2nc(C)nc(NCc3nnc(C)s3)c2Cl)nc1` [Compound 2-58, S,S-5-chloro-2-methyl-6-{[(1S,2S)-2-(5-methylpyridin-2-yl)cyclopropyl]methoxy}-N-[(5-methyl-1,3,4-thiadiazol-2-yl)methyl]pyrimidin-4-amine], the Ki came out at 3.9 nM.
The figure for `Cc1nnc(CNc2cc(OC[C@H]3C[C@@H]3c3ccccn3)nc(CF)n2)s1` [Compound 3-8, S,S-2-(fluoromethyl)-N-[(5-methyl-1,3,4-thiadiazol-2-yl)methyl]-6-[(2-pyridin-2-ylcyclopropyl)methoxy] pyrimidin-4-amine] is 1.1 nM; for `Cc1nc(C)c(CNc2cc(OC[C@H]3C[C@@H]3c3ccccn3)nc(C3CC3)n2)s1` [Compound 3-11, S,S-2-cyclopropyl-N-[(2,4-dimethyl-1,3-thiazol-5-yl)methyl]-6-[(2-pyridin-2-ylcyclopropyl)methoxy] pyrimidin-4-amine] it is 1.6 nM.
The figure for `COc1ccc([C@H]2C[C@@H]2COc2nc(N)nc(NCc3nnc(C)s3)c2F)nc1` [Compound 3-13, 5-fluoro-6-{[(1S,2S)-2-(5-methoxypyridin-2-yl)cyclopropyl]methoxy}-N-4-[(5-methyl-1,3,4-thiadiazol-2-yl)methyl]pyrimidine-2,4-diamine] is 0.5 nM.
As for `Cc1nnc(CNc2nc(N)nc(OC[C@H]3C[C@@H]3c3ccc(Cl)cn3)c2F)s1` [Compound 3-19, 6-{[(1S,2S)-2-(5-chloropyridin-2-yl)cyclopropyl]methoxy}-5-fluoro-N-4-[(5-methyl-1,3,4-thiadiazol-2-yl)methyl]pyrimidine-2,4-diamine], the figure is 3.6 nM.
With `Cc1nnc(CNc2nc(N)nc(OC[C@H]3C[C@@H]3c3ccc4c(n3)CCC4)c2F)s1` [Compound 3-25, S,S-6-(((1S,2S)-2-(6,7-dihydro-5H-cyclopenta[b]pyridin-2-yl)cyclopropyl)methoxy)-5-fluoro-N4-((5-methyl-1,3,4-thiadiazol-2-yl)methyl)pyrimidine-2,4-diamine], the Ki was determined as 0.09 nM.
The figure for `Cc1nc(NCc2cc(C)on2)cc(OCC2CC2c2ccccn2)n1` (stereo not shown) [Compound 12-2, 2-methyl-N-((5-methylisoxazol-3-yl)methyl)-6-((2-(pyridin-2-yl)cyclopropyl)methoxy)-pyrimidin-4-amine] is 1.1 nM; for `Cc1nc(NCc2ccncc2C)cc(OCC2CC2c2ccccn2)n1` (stereo not shown) [Compound 14-3, 2-methyl-N-((3-methylpyridin-4-yl)methyl)-6-((2-(pyridin-2-yl)cyclopropyl)methoxy)pyrimidin-4-amine] it is 5.3 nM; for `Cc1ccc([C@H]2C[C@@H]2COc2nc(N)nc(NCc3nnc(C)s3)c2C#N)nc1` [Compound 16-4, 2-amino-4-{[(1S,2S)-2-(5-methylpyridin-2-yl)cyclopropyl]methoxy}-6-{[(5-methyl-1,3,4-thiadiazol-2-yl)methyl]amino}pyrimidine-5-carbonitrile] it is 1.6 nM.

These data come from patent US9062059B2, “Pyrimidine PDE10 inhibitors” (Merck Sharp & Dohme Corp., priority 2011, dated 2015).
